Starred links: 1 amine or outer side, 2 acyl side, 3 side chain; linkers in the order of their positions; H or OH if unused. Positions of bridges follow the written chain, without caps; N, C: chain ends. Non-standard residues stand in square brackets, D forms with d. Residues, ends and D or L forms follow the SMILES beside them. Groups on a side chain read outwards from the residue. *: point of attachment. C20 diacid = O=C(O)CCCCCCCCCCCCCCCCCCC(=O)*; γGlu = O=C(O)[C@H](CCC(=O)[*:2])N[*:1]; αMeL = CC(C)C[C@](C)(N)C(=O)O; Orn = NCCC[C@H](N)C(=O)O; CH2 = C([*:1])[*:2]
Key:
CD4+ T cells = assay: T cell proliferation assay; details: 7-10 donors with diverse MHC
Method: This assay assesses the ability of tested antibodies or tested MAPPS peptides to activate CD4+ T cells by inducing cellular proliferation. CD8+ T cell depleted PBMC's are prepared and labeled with CFSE. Each sample is tested with media control, keyhole limpet haemocyanin (KLH; positive clinical benchmark control), tested antibodies, or tested MAPPS peptides. Cultures are incubated for 7 days. On day 7, samples are analyzed by flow cytometry.

[1] = target: T1, human calcitonin receptor (hCTR) (Homo sapiens, UniProt P30988); assay: hCTR competitive radioligand binding filter assay (125I-hCT); details: ± SE; membranes of hCTR overexpressing cells
T1 construct: expressed in transfected cells; host or cells: membranes of UM-UC-3 (UMUC3) cells stably expressing human CTa
T1 sequence (P30988 25-474): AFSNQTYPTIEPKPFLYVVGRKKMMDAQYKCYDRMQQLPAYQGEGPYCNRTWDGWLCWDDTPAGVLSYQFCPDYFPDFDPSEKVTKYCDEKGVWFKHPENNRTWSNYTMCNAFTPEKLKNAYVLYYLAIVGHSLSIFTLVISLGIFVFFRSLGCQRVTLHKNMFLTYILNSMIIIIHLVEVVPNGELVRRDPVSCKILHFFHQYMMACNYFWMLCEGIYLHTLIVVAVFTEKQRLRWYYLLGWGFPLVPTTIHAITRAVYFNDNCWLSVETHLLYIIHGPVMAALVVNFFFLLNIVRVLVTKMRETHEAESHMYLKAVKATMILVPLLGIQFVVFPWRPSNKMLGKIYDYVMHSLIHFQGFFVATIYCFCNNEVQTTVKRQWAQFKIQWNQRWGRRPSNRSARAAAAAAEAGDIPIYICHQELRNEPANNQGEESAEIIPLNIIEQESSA
Method: (§1) The equilibrium dissociation constants (Kd) for the various receptor/radioligand interactions are determined from saturation binding analysis using the same reagents and buffers as described below for compound testing.
The receptor binding affinity (Ki) of rAMY, hCT, and hAMY agonist peptides on hCTR membranes is determined from a competitive radioligand binding filter assay.

[2] = Pharmacokinetics in male cynomolgus monkeys; type: in vivo; details: single SC 20 nmol/kg, mean
Method: The pharmacokinetics of Compound II (SEQ ID NO:2), Compound IV (SEQ ID NO:4), Compound VI (SEQ ID NO:6), and Compound VIII (SEQ ID NO:8) are evaluated following a single subcutaneous administration of 20 nmol/kg to male cynomolgus monkeys. Blood samples are collected at 1, 3, 6, 12, 24, 48, 72, 120, 168, 240, 336, 408, 504 hours post SC dose. The resulting individual plasma concentrations are used to calculate pharmacokinetic parameters. Peptide plasma (K3EDTA) concentrations are determined using a qualified LC/MS method that measured the intact mass of the peptides. Each peptide and an analog as an internal standard are extracted from plasma. A high resolution Thermo Q-Exactive is used for LC/MS detection.

human CT receptors = target: T2, human CT receptors (Homo sapiens, UniProt P30988); assay: hCTR cAMP functional activity (HTRF); type: cell-based; details: ±SE; UMUC3 cells overexpressing hCTR; relative EC50
T2 construct: expressed in transfected cells
T2 sequence (P30988 25-474): T1 sequence (P30988 25-474)
Method in brief: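 UM-UC-3 bladder cells stably overexpressing human CT receptor, 1200 cells/well, exposed to peptides in 1:3 dilution series for 1 h at room temperature. Intracellular cAMP measured by HTRF after 60 min lysis/detection, converted to pmol/well from a per-experiment cAMP standard curve.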

hAMY1R = target: T3, hAMY1R (Homo sapiens, UniProt O60894+P30988); assay: hAMY1R competitive radioligand binding filter assay (125I-rAMY); details: ± SE; membranes of hAMY1R overexpressing cells
T3 construct: expressed in transfected cells
T3 sequence (O60894 27-148 partner, one chain of several): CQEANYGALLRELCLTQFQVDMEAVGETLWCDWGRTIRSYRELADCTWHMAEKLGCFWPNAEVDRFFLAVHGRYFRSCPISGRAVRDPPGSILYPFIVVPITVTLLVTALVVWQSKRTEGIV
Method: as §1
The receptor binding affinity (Ki) of rAMY, hCT, and hAMY agonist peptides are determined from a competitive radioligand binding filter assay. The assay buffer consists of (in mM) 50 HEPES, pH 7.1, 5 MgCl2, 5 KCl, 0.2% (w/v) bacitracin, 0.003% (w/v) saponin and is used to dilute radioligand and membrane preparation. Binding reactions are carried out in 0.1 mL total reaction volume in a polystyrene 96 deep-well assay block. […] Test compounds and non-specific binding (NSB—defined as 300 nM rAMY) are added to aliquots of radioactivity buffer. […] The binding reaction is initiated by the addition of 0.05 mL of 200 μg/mL hAMY1R diluted in assay buffer to the radioactivity. Assay blocks are gently vortexed, sealed with parafilm, and incubated at RT for approximately 20 hours. […] At the end of the incubation, bound ligand is separated from free by addition of an ice cold quench buffer consisting of 100 mM NaCl, 50 mM TRIS-HCl pH 7.1 and immediately collected over the filter mat by vacuum filtration with a TomTec 96 well filter harvester using the following filter protocol (Dry time, 7; Cycle 3 repeat, 0; Wash Time, 1; Soak Time, 1; 1st Aspirate Time, 4; Wash/Aspirate Time, 7; 2nd Aspirate, 4; air pressure 2 PSI).

[3] = male, cynomolgus monkey, plasma, n = 3

- Ki [1]: 927 ± 120 nM
- CL/F [2, 3]: 1.07 mL/h/kg
- Tmax [2, 3]: 28 ± 18.3 h
- half-life ([2]; male, cynomolgus monkey, plasma, n = 3, read-out: T½ (converted)): 62 ± 4.7 h
- AUCINF/D ([2]; n = 3): 942 ± 67 hr * kg * nmol/L/nmol
- Cmax/D ([2]; n = 3): 7.2 ± 0.3 kg * nmol/L/nmol
- EC50 (human CT receptors): 9.69 ± 2.01 nM
- Ki (hAMY1R): 0.0435 ± 0.0072 nM
Structure (SMILES): CC[C@H](C)[C@H](NC(=O)[C@@H]1CCCN1C(=O)CNC(=O)[C@H](Cc1ccccc1)NC(=O)[C@H](CC(N)=O)NC(=O)[C@H](Cc1c[nH]cn1)NC(=O)[C@H](CO)NC(=O)[C@H](CO)NC(=O)[C@H](CCCNC(=N)N)NC(=O)[C@@H](NC(=O)[C@H](CC(C)C)NC(=O)[C@H](Cc1ccccc1)NC(=O)[C@H](CCC(=O)O)NC(=O)[C@H](C)NC(=O)[C@](C)(CC(C)C)NC(=O)[C@H](CCCN)NC(=O)CNC(=O)[C@@H](NC(=O)[C@H](C)NC(=O)[C@@H]1CSCSC[C@H](NC(=O)[C@@H](N)CCCCNC(=O)CC[C@H](NC(=O)CC[C@H](NC(=O)CCCCCCCCCCCCCCCCCCC(=O)O)C(=O)O)C(=O)O)C(=O)N[C@@H](CCC(=O)O)C(=O)N[C@@H]([C@@H](C)O)C(=O)N[C@@H](C)C(=O)N[C@@H]([C@@H](C)O)C(=O)N1)[C@@H](C)O)C(C)C)C(=O)N[C@@H](CC(C)C)C(=O)N1CCC[C@H]1C(=O)N1CCC[C@H]1C(=O)N[C@H](C(=O)N[C@@H](CCC(=O)O)C(=O)N[C@H](C(=O)NCC(=O)N[C@@H](CO)C(=O)N[C@@H](CC(N)=O)C(=O)N[C@H](C(=O)N[C@@H](Cc1ccc(O)cc1)C(N)=O)[C@@H](C)O)C(C)C)[C@@H](C)O [Compound VIII] (H-K([γGlu-γGlu-C20 diacid])CETATCATG[Orn][αMeL]AEFLVRSSHNFGPILPPTEVGSNTY-NH2; linker 2-7 via CH2)
- T Cell Proliferation Assay: protein, immunogenicity risk (CD4+ T cells): Low Risk
- T Cell Proliferation Assay: protein, positive donors (CD4+ T cells): (1/9

— patent US12551532B2, “Long-acting amylin receptor agonists and uses thereof” (Eli Lilly and Company, priority 2021, dated 2026)
